# Source: US20090124690A1, “Generation of Combinatorial Synthetic Libraries and Screening for Novel Proadhesins and Nonadhesins” (priority 2000, published 2009)
# Columns and labels:
# Dengue 2 = assay: Anti-infection (adhesion) of viruses: Dengue 2, focus forming unit (FFU) reduction assay on LLCMK-2 cells; format: cell-based, Dengue virus (DENV-2 strain NG-2); settings: FIG. 6
# Method: (§1) DENV-1 strain HI-1, DENV-2 strain NG-2, DENV-3 strain H-78, and DENV-4 strain H-42 were obtained from R. Tesh at the World Health Organization Arbovirus Reference Laboratory at the University of Texas at Galveston. Viruses were propagated in the African green monkey kidney epithelial cell line, LLCMK-2, a gift of K. Olsen at Colorado State University. LLCMK-2 cells were grown in DMEM with 10% (v/v) FBS, 2 mM Glutamax, 100 U/ml penicillin G, 100 μg/ml streptomycin and 0.25 μg/ml amphotericin B, at 37° C. with 5% (V/V) CO2.
# LLCMK-2 target cells were seeded at a density of 1×10^5 cells in each well of a 6-well plate 24 h prior to infection. Approximately 200 FFU of virus were incubated with or without chemistries in serum-free DMEM for 1 h at rt. […] Virus foci were detected using supernatant from mouse anti-DENV hybridoma E60 (obtained from M. Diamond at Washington University) followed by horseradish peroxidase-conjugated goat anti-mouse immunoglobulin (Pierce, Rockford, Ill.) and developed using AEC chromogen substrate (Dako, Carpinteria, Calif.). Results were expressed as the average of at least two independent trials with three replicates in each trial.
# [1] = test system: MRSA Staphylococcus aureus; assay: Anti-adhesion assay, MRSA Staphylococcus aureus; format: cell-based; settings: for ICMAX / ICMAX: level of maximal inhibition (ICxx): anti-adhesion, MRSA S. aureus, cell reads 'ICxx - concentration'
# P. aerug. = assay: Library screening against P. aeruginosa (IC50); format: cell-based, Pseudomonas aeruginosa; settings: Table 3
# Dengue virus = assay: Direct binding assay (DART TOF-MS), Dengue virus; settings: FIG. 6
# Description: The virus particles were collected and fixed in 100% (USP) ethanol prior to DART TOF-MS analysis. The closed end of a borosilicate glass capillary tube was immersed in the virion solution and passed through the DART He plasma to obtain mass spectra of virion surface-bound chemistries. […] The same conditions were used to assess the binding of composition here to bacterial species. • 1. […] Viruses and Cells
# as §1
# Colletotrichum acutatum = assay: Petri dish assay for activity against Colletotrichum acutatum (spore adhesion); settings: for Inhibition of adhesion of spores to polystyrene surfaces, Colletotrichum acutatum: compound tested at 0.5%
# [2] = test system: Staphylococcus epidermidis; assay: 96-well plate assay for activity against Staphylococcus epidermidis (adhesion, Syto 13); settings: compound tested at 0.5%
SMILES,ICMAX [1] [µM],ICMAX: level of maximal inhibition (ICxx) [1],"Inhibition of adhesion of spores to polystyrene surfaces, Colletotrichum acutatum (Colletotrichum acutatum) [%]",further results
CCN(CCOC(=O)/C=C/c1ccc(O)cc1)Cc1cc(Cl)ccc1O [Compound I],120,IC70,,"Dengue infection when compound is bound (Dengue 2): inhibited; IC50 ([1]; Staphylococcus aureus, MRSA): 82 µM; IC50 (% wt/vol) P. aerug. (P. aerug.): 0.001 % wt/vol; direct binding to Dengue virus (DART-MS) (Dengue virus): direct binding; IC50 (% wt/vol) C. acut. (Colletotrichum acutatum; Table 3): 0.004 % wt/vol"
CNC(=O)C(Cc1ccc(OS(=O)(=O)C(F)(F)F)cc1)NC(=O)COCC(=O)Nc1cccc(OS(=O)(=O)C(F)(F)F)c1 (stereo not drawn) [Compound B02],,,−16,
"O=C(O)/C=C/c1ccc(OS(=O)(=O)O)cc1 [Zosteric Acid, reference compound]",90,IC100,,
CNC(=O)C(Cc1ccc(OS(C)(=O)=O)cc1)NC(=O)COCC(=O)Nc1cccc(OS(C)(=O)=O)c1 (stereo not drawn) [Compound A02],,,−12,"Inhibition of adhesion of cells to polystyrene surfaces, Staphylococcus epidermidis [2]: 22%"
